Common to all, as to format: functional
Assay [1] concerns Pseudomonas aeruginosa. The assay is described as follows: Antimicrobial activity against Pseudomonas aeruginosa assessed as zone of inhibition at 50 ug/well after 24 hrs by agar well diffusion method. The conditions noted are these: for zone of inhibition at 50 µg/disc: read-out: DIZ. For orientation: In agar diffusion tests the substance spreads into inoculated agar from a disc or well.

The test system of assay [2] is Klebsiella pneumoniae. The assay is described as follows: Antimicrobial activity against Klebsiella pneumoniae assessed as zone of inhibition at 75 ug/well after 24 hrs by agar well diffusion method. The conditions noted are these: for zone of inhibition at 75 µg/disc: read-out: DIZ.
In assay [3] the test system is Penicillium chrysogenum. In words: Antifungal activity against Penicillium chrysogenum assessed as zone of inhibition at 75 ug/well after 48 hrs by agar well diffusion method. The conditions noted are these: for zone of inhibition at 75 µg/disc: read-out: DIZ.
Assay [4] deals with Bacillus subtilis. The assay is described as follows: Antimicrobial activity against Bacillus subtilis assessed as zone of inhibition at 75 ug/well after 24 hrs by agar well diffusion method. The conditions noted are these: for zone of inhibition at 75 µg/disc: read-out: DIZ.
In assay [5] the test system is Bacillus subtilis. In words: Antimicrobial activity against Bacillus subtilis assessed as zone of inhibition at 100 ug/well after 24 hrs by agar well diffusion method. The settings on record: for zone of inhibition at 100 µg/disc: read-out: DIZ.
For assay [6], the system named is Penicillium chrysogenum. In words: Antifungal activity against Penicillium chrysogenum assessed as zone of inhibition at 50 ug/well after 48 hrs by agar well diffusion method.
In assay [7] the test system is Aspergillus niger. The assay is described as follows: Antifungal activity against Aspergillus niger assessed as zone of inhibition at 75 ug/well after 48 hrs by agar well diffusion method. The settings on record: read-out: DIZ.
For assay [8], the system named is Klebsiella pneumoniae. The assay is described as follows: Antimicrobial activity against Klebsiella pneumoniae assessed as zone of inhibition at 50 ug/well after 24 hrs by agar well diffusion method. The conditions noted are these: for zone of inhibition at 50 µg/disc: read-out: DIZ.
Assay [9] relates to Staphylococcus aureus. The assay is described as follows: Antimicrobial activity against Staphylococcus aureus assessed as zone of inhibition at 75 ug/well after 24 hrs by agar well diffusion method. The settings on record: for zone of inhibition at 75 µg/disc: read-out: DIZ.
Assay [10] concerns Bacillus subtilis. The assay is described as follows: Antimicrobial activity against Bacillus subtilis assessed as zone of inhibition at 50 ug/well after 24 hrs by agar well diffusion method. The settings on record: for zone of inhibition at 50 µg/disc: read-out: DIZ.
In assay [11] the test system is Pseudomonas aeruginosa. In words: Antimicrobial activity against Pseudomonas aeruginosa assessed as zone of inhibition at 75 ug/well after 24 hrs by agar well diffusion method. The settings on record: for zone of inhibition at 75 µg/disc: read-out: DIZ.
Assay [12] deals with Aspergillus niger. The assay is described as follows: Antifungal activity against Aspergillus niger assessed as zone of inhibition at 100 ug/well after 48 hrs by agar well diffusion method. The settings on record: read-out: DIZ.
Assay [13] deals with Staphylococcus aureus. The assay is described as follows: Antimicrobial activity against Staphylococcus aureus assessed as zone of inhibition at 50 ug/well after 24 hrs by agar well diffusion method. The settings on record: for zone of inhibition at 50 µg/disc: read-out: DIZ.
In assay [14] the test system is Staphylococcus aureus. The assay is described as follows: Antimicrobial activity against Staphylococcus aureus assessed as zone of inhibition at 100 ug/well after 24 hrs by agar well diffusion method. The settings on record: for zone of inhibition at 100 µg/disc: read-out: DIZ.
The subject of assay [15] is Aspergillus niger. In words: Antifungal activity against Aspergillus niger assessed as zone of inhibition at 50 ug/well after 48 hrs by agar well diffusion method. The settings on record: for zone of inhibition at 50 µg/disc: read-out: DIZ.
For assay [16], the system named is Penicillium chrysogenum. The assay is described as follows: Antifungal activity against Penicillium chrysogenum assessed as zone of inhibition at 100 ug/well after 48 hrs by agar well diffusion method. The settings on record: for zone of inhibition at 100 µg/disc: read-out: DIZ.
The subject of assay [17] is Pseudomonas aeruginosa. In words: Antimicrobial activity against Pseudomonas aeruginosa assessed as zone of inhibition at 100 ug/well after 24 hrs by agar well diffusion method. The conditions noted are these: for zone of inhibition at 100 µg/disc: read-out: DIZ.
For assay [18], the system named is Klebsiella pneumoniae. In words: Antimicrobial activity against Klebsiella pneumoniae assessed as zone of inhibition at 100 ug/well after 24 hrs by agar well diffusion method. The settings on record: for zone of inhibition at 100 µg/disc: read-out: DIZ.

Activity calls are given as the source filed them. No cut-off for these calls is given here.

With `Cc1ccc(-c2c(S(=O)(=O)NC(=O)c3ccc(Cl)s3)c(-c3ccccc3)nn2-c2ccccc2)cc1`, the “diameter of the inhibition zone (DIZ)” value in the assay with Pseudomonas aeruginosa [1], in the assay with Penicillium chrysogenum [6] and with Pseudomonas aeruginosa [11] was “inactive” throughout. Further, the zone of inhibition at 75 µg/disc with Klebsiella pneumoniae [2] came out at 17 mm; in the assay with Penicillium chrysogenum [3], 10 mm; with Bacillus subtilis [4], 20 mm; with Aspergillus niger [7], 19 mm; in the assay on Staphylococcus aureus [9], 15 mm. The zone of inhibition at 100 µg/disc in the assay on Bacillus subtilis [5] was found to be 24 mm; with Aspergillus niger [12], 23 mm; in the assay on Staphylococcus aureus [14], 16 mm; with Penicillium chrysogenum [16], 13 mm; in the assay on Pseudomonas aeruginosa [17], 13 mm; in the assay on Klebsiella pneumoniae [18] it was 20 mm. Also, the zone of inhibition at 50 µg/disc in the assay on Klebsiella pneumoniae [8] came out at 15 mm; with Bacillus subtilis [10], 18 mm; in the assay with Staphylococcus aureus [13], 12 mm; in the assay on Aspergillus niger [15], 16 mm.
With `O=C(NS(=O)(=O)c1c(-c2ccccc2)noc1-c1ccccc1)c1ccc(Cl)s1`, the zone of inhibition at 50 µg/disc in the assay with Pseudomonas aeruginosa [1] worked out at 17 mm; in the assay with Penicillium chrysogenum [6] (read-out: DIZ), 17 mm; in the assay on Klebsiella pneumoniae [8], 26 mm; in the assay with Bacillus subtilis [10], 30 mm; with Staphylococcus aureus [13] it was 23 mm; with Aspergillus niger [15], 21 mm. Also, the zone of inhibition at 75 µg/disc in the assay on Klebsiella pneumoniae [2] stood at 29 mm; in the assay on Penicillium chrysogenum [3] it was 19 mm; with Bacillus subtilis [4], 32 mm; in the assay on Aspergillus niger [7], 24 mm; in the assay on Staphylococcus aureus [9], 26 mm; in the assay on Pseudomonas aeruginosa [11], 19 mm. Moreover, the zone of inhibition at 100 µg/disc was 35 mm in the assay on Bacillus subtilis [5]; 28 mm with Aspergillus niger [12]; 28 mm in the assay with Staphylococcus aureus [14]; 22 mm in the assay on Penicillium chrysogenum [16]; 21 mm in the assay on Pseudomonas aeruginosa [17]; 32 mm in the assay with Klebsiella pneumoniae [18].
For `Cc1ccc(-c2c(S(=O)(=O)NC(=O)c3cccs3)c(-c3ccccc3)nn2-c2ccccc2)cc1`, the “diameter of the inhibition zone (DIZ)” value in the assay with Pseudomonas aeruginosa [1] and in the assay with Penicillium chrysogenum [6] was “inactive” throughout. Further, the zone of inhibition at 75 µg/disc stood at 16 mm with Klebsiella pneumoniae [2]; 8 mm in the assay on Penicillium chrysogenum [3]; 18 mm in the assay on Bacillus subtilis [4]; 15 mm with Aspergillus niger [7]; 12 mm with Staphylococcus aureus [9]; 8 mm in the assay on Pseudomonas aeruginosa [11]. In addition, the zone of inhibition at 100 µg/disc in the assay on Bacillus subtilis [5] stood at 21 mm; with Aspergillus niger [12], 17 mm; in the assay with Staphylococcus aureus [14], 14 mm; in the assay on Penicillium chrysogenum [16], 10 mm; in the assay on Pseudomonas aeruginosa [17] it was 11 mm; with Klebsiella pneumoniae [18], 18 mm. The zone of inhibition at 50 µg/disc in the assay with Klebsiella pneumoniae [8] was determined as 14 mm; in the assay on Bacillus subtilis [10] it was 16 mm; with Staphylococcus aureus [13] it was 9 mm; in the assay on Aspergillus niger [15] it was 12 mm.
Take `O=C(NS(=O)(=O)C1C(c2ccccc2)=NN(c2ccccc2)C1c1ccc([N+](=O)[O-])cc1)c1ccc(Cl)s1` (stereo unspecified): the “diameter of the inhibition zone (DIZ)” value in the assay with Pseudomonas aeruginosa [1], in the assay with Penicillium chrysogenum [6], with Staphylococcus aureus [9], in the assay on Pseudomonas aeruginosa [11], in the assay on Staphylococcus aureus [13] and in the assay on Pseudomonas aeruginosa [17] was “inactive” each time. For the same compound, the zone of inhibition at 75 µg/disc in the assay on Klebsiella pneumoniae [2] worked out at 13 mm; in the assay on Penicillium chrysogenum [3], 10 mm; in the assay on Bacillus subtilis [4], 15 mm; with Aspergillus niger [7], 14 mm. Further, the zone of inhibition at 100 µg/disc stood at 19 mm in the assay with Bacillus subtilis [5]; 17 mm with Aspergillus niger [12]; 10 mm with Staphylococcus aureus [14]; 14 mm with Penicillium chrysogenum [16]; 14 mm with Klebsiella pneumoniae [18]. In addition, the zone of inhibition at 50 µg/disc with Klebsiella pneumoniae [8] worked out at 12 mm; in the assay on Bacillus subtilis [10] it was 13 mm; in the assay on Aspergillus niger [15] it was 10 mm.
`O=C(NS(=O)(=O)/C=C/c1ccccc1)c1cccs1`: the zone of inhibition at 50 µg/disc with Pseudomonas aeruginosa [1] worked out at 7 mm; in the assay with Klebsiella pneumoniae [8], 15 mm; in the assay on Bacillus subtilis [10] it was 18 mm; in the assay with Staphylococcus aureus [13], 12 mm; with Aspergillus niger [15], 10 mm. For the same compound, the zone of inhibition at 75 µg/disc in the assay on Klebsiella pneumoniae [2] turned out to be 18 mm; with Penicillium chrysogenum [3], 8 mm; in the assay on Bacillus subtilis [4] it was 21 mm; in the assay with Aspergillus niger [7] it was 13 mm; in the assay with Staphylococcus aureus [9], 16 mm; in the assay with Pseudomonas aeruginosa [11], 9 mm. In addition, the zone of inhibition at 100 µg/disc in the assay with Bacillus subtilis [5] was 23 mm; with Aspergillus niger [12], 15 mm; with Staphylococcus aureus [14], 17 mm; with Penicillium chrysogenum [16], 11 mm; in the assay on Pseudomonas aeruginosa [17], 10 mm; in the assay with Klebsiella pneumoniae [18] it was 19 mm. For the same compound, the “diameter of the inhibition zone (DIZ)” value in the assay on Penicillium chrysogenum [6] is “inactive”.
Turning to `Cc1ccc(C2C(S(=O)(=O)NC(=O)c3cccs3)C(c3ccccc3)=NN2c2ccccc2)cc1` (stereo unspecified), the “diameter of the inhibition zone (DIZ)” value with Pseudomonas aeruginosa [1], in the assay on Klebsiella pneumoniae [2], in the assay with Penicillium chrysogenum [3], in the assay on Bacillus subtilis [4], in the assay on Bacillus subtilis [5] and in the assay on Penicillium chrysogenum [6] was “inactive” throughout. Moreover, the “diameter of the inhibition zone (DIZ)” value in the assay with Klebsiella pneumoniae [8], in the assay on Staphylococcus aureus [9], with Bacillus subtilis [10], with Pseudomonas aeruginosa [11], with Staphylococcus aureus [13] and in the assay on Staphylococcus aureus [14] was “inactive” each time. The “diameter of the inhibition zone (DIZ)” value in the assay on Aspergillus niger [15], with Penicillium chrysogenum [16], in the assay on Pseudomonas aeruginosa [17] and with Klebsiella pneumoniae [18] was “inactive” throughout. For the same compound, the zone of inhibition at 75 µg/disc in the assay on Aspergillus niger [7] stood at 8 mm. Besides, in the assay on Aspergillus niger [12], the zone of inhibition at 100 µg/disc was found to be 10 mm.
As for `O=C(NS(=O)(=O)C1C(c2ccccc2)=NOC1c1ccccc1)c1ccc(Cl)s1` (stereo unspecified), the “diameter of the inhibition zone (DIZ)” value with Pseudomonas aeruginosa [1], with Penicillium chrysogenum [3], in the assay on Penicillium chrysogenum [6], in the assay on Staphylococcus aureus [9], in the assay on Pseudomonas aeruginosa [11] and with Staphylococcus aureus [13] was “inactive” each time. The “diameter of the inhibition zone (DIZ)” value in the assay with Aspergillus niger [15] and in the assay on Pseudomonas aeruginosa [17] was “inactive” each time. Further, the zone of inhibition at 75 µg/disc is 10 mm in the assay with Klebsiella pneumoniae [2], 12 mm with Bacillus subtilis [4] and 9 mm in the assay on Aspergillus niger [7]. The zone of inhibition at 100 µg/disc in the assay with Bacillus subtilis [5] stood at 16 mm; in the assay on Aspergillus niger [12], 12 mm; in the assay on Staphylococcus aureus [14], 8 mm; in the assay on Penicillium chrysogenum [16], 7 mm; in the assay with Klebsiella pneumoniae [18], 12 mm. Moreover, the zone of inhibition at 50 µg/disc with Klebsiella pneumoniae [8] is 8 mm; with Bacillus subtilis [10], 10 mm.

The values above are taken from ChEMBL document CHEMBL4251595, “Green approach for the synthesis of thiophenyl pyrazoles and isoxazoles by adopting 1,3-dipolar cycloaddition methodology and their antimicrobial activity” (2018).
